Experimental data taken from EP1118615A1, “NOVEL SALTS OF PYRIDOPYRAZINE COMPOUND AND CRYSTALS THEREOF” (FUJISAWA PHARMACEUTICAL CO., LTD., priority 1998, dated 2000).
Counter-ions that a name gives are not always drawn. Like-named read-outs stand apart in the source and are kept apart here.

Legend:
Stability in solid state = type: physicochemical; parameters: Water content: unit not given here
Text: The crystallinity of hydrochloride was decreased when it was mixed with ethanol.
(§1) In the study on polymorphism of compound (I), six kinds of polymorphs (A01, A09, A16, A20, A30 and A43 crystals) were found. For each of those polymorphs, hygroscopicity, stability in solid state, solubility and changes in crystallinity on compounding with various solvents were studied. However, the A30 crystal was not studied since it contains ethanol.
(2) Stability in solid state

[1] = Changes in crystallinity upon compounding with ethanol; type: physicochemical
Text: (2) Changes in crystallinity upon compounding
For compound (I) and hydrochloride (B), changes in crystallinity upon compounding with ethanol were studied.

physchem = settings: thermodynamic from solid
[2] = methanesulfonate
Hygroscopicity = type: physicochemical
Text: as §1

[3] = 70°C, 75% RH, 9 days, methanesulfonate
[4] = distilled water for injection, water
[5] = physiological saline solution, saline or isotonic
[6] = Table 1, listed as Compound (I) (A01 crystal)
[7] = Table 4, room temperature, 30-min shaking

## CS(=O)(=O)O.O=C(Nc1cccc(-n2c(=O)c(Cc3cccnc3)nc3cccnc32)c1)c1cc(Cl)cc(Cl)c1 [A01 crystal, 4-(3-(3,5-dichlorobenzoylamino)phenyl)-2-(3-pyridyl)methyl-3-oxo-3,4-dihydropyr ido[2,3-b]pyrazine methanesulfonate]
Stability in solid state; 70°C, 75% RH, 9 days
  Crystal form: Unchanged
Stability in solid state; [3]
  % Residue: 99.9%
  Appearance: Yellowish white crystalline powder powder
  Water content: 4.76
Stability in solid state; 70°C, 9 days
  Crystal form: Unchanged
Stability in solid state; 70°C, 9 days, methanesulfonate
  Appearance: Yellowish white crystalline powder
  Water content: 4.23
Stability in solid state; Initial
  % Residue: 100.0%
Stability in solid state; Initial, methanesulfonate
  Appearance: Yellowish white crystalline powder
  Water content: 4.42
[1]; listed as Compound (I) (A01 crystal), methanesulfonate
  Influence of compounding with ethanol on crystallinity: No change (changed into in A16 crystal)
physchem; [4]
  solubility: 637 µg/mL
physchem; [5]
  solubility: 43.9 µg/mL
  solubility at 30 min: 43.9 µg/mL
[2]; [6]
  Solubility, Distilled water for injection: improved
  Solubility, Physiological saline solution: improved
[2]; [7]
  Solubility, Distilled injection for injection: 637 µg/mL
Hygroscopicity; listed as A01, methanesulfonate
  Hygroscopicity: less hygroscopic

## CS(=O)(=O)O.O=C(Nc1cccc(-n2c(=O)c(Cc3cccnc3)nc3cccnc32)c1)c1cc(Cl)cc(Cl)c1 [A20 crystal, 4-(3-(3,5-dichlorobenzoylamino)phenyl)-2-(3-pyridyl)methyl-3-oxo-3,4-dihydropyr ido[2,3-b]pyrazine methanesulfonate]
Stability in solid state; 70°C, 75% RH, 9 days
  Crystal form: Unchanged
Stability in solid state; [3]
  % Residue: 101.0%
  Appearance: Pale yellowish white crystalline powder
  Water content: 1.22
Stability in solid state; 70°C, 9 days
  Crystal form: Unchanged
Stability in solid state; 70°C, 9 days, methanesulfonate
  % Residue: 99.6%
  Appearance: Pale yellowish white crystalline powder
  Water content: 0.30
Stability in solid state; Initial
  % Residue: 100.0%
Stability in solid state; Initial, methanesulfonate
  Appearance: Pale yellowish white white crystalline powder
  Water content: 0.41
Stability in solid state; heat and humidity, summary of Table 3
  change in crystal form: no change
Stability in solid state; summary of Table 3
  chemical stability against heat and humidity: chemically stable
[2]; [7]
  Solubility, Distilled injection for injection: 8.76 µg/mL
  Solubility, Physiological saline solution: 0.0645 mg/ml
Hygroscopicity; listed as A20, methanesulfonate
  Hygroscopicity: less hygroscopic

## CS(=O)(=O)O.O=C(Nc1cccc(-n2c(=O)c(Cc3cccnc3)nc3cccnc32)c1)c1cc(Cl)cc(Cl)c1 [Example A09, 4-(3-(3,5-dichlorobenzoylamino)phenyl)-2-(3-pyridyl)methyl-3-oxo-3,4-dihydropyrido[2,3-b]pyrazine methanesulfonate]
Hygroscopicity; methanesulfonate
  Hygroscopicity: highly hygroscopic

## CS(=O)(=O)O.O=C(Nc1cccc(-n2c(=O)c(Cc3cccnc3)nc3cccnc32)c1)c1cc(Cl)cc(Cl)c1 [compound (I), 4-[3-(3,5-dichlorobenzoylamino)phenyl]-2-(3-pyridylmethyl)-3-oxo-3,4-dihydropyr ido[2,3-b]pyrazine methanesulfonate]
[1]; methanesulfonate
  Influence of compounding with ethanol on crystallinity: no change in crystallinity

## O=C(Nc1cccc(-n2c(=O)c(Cc3cccnc3)nc3cccnc32)c1)c1cc(Cl)cc(Cl)c1 [free base (A), 4-[3-(3,5-dichlorobenzoylamino)phenyl]-2-(3-pyridylmethyl)-3-oxo-3,4-dihydropyr ido[2,3-b]pyrazine, reference compound]
physchem; [4]
  solubility: ≤ 1 µg/mL
physchem; [5]
  solubility: ≤ 1 µg/mL

## O=C(Nc1cccc(-n2c(=O)c(Cc3cccnc3)nc3cccnc32)c1)c1cc(Cl)cc(Cl)c1 [hydrochloride (B), reference compound]
Stability in solid state; ethanol-compounded solid, 70°C for 9 days
  residual amount: 91%
[1]; listed as Hydrochloride (B)
  Influence of compounding with ethanol on crystallinity: Crystallinity decreased
[1]; listed as hydrochloride
  Influence of compounding with ethanol on crystallinity: decreased

## O=C(Nc1cccc(-n2c(=O)c(Cc3cccnc3)nc3cccnc32)c1)c1cc(Cl)cc(Cl)c1.O=S(=O)(O)O [sulfate, 4-(3-(3,5-dichlorobenzoylamino)phenyl)-2-(3-pyridyl)methyl-3-oxo-3,4-dihydropyrido[2,3-b]pyrazine sulfate, reference compound]
physchem; [4]
  solubility: 29.5 µg/mL
physchem; [5]
  solubility: 38.9 µg/mL
